From patent US20260191803A1, “SYSTEM AND METHOD FOR THE TREATMENT OF TELOGEN EFFLUVIUM AND CHEMOTHERAPY INDUCED ALOPECIA” (Follea International, priority 2025, published 2026) come the findings set out here.

Structures are written as SMILES.

The assay concerns hair shedding. Briefly: Example 5: hair shedding, hairs removed with brush after 10% phenylephrine or placebo. The class given is in vivo, human. The following applies: average of 15 patients; versus placebo.

Description: Patients: Fifteen female subjects, ages 18-40, were included in the study. Subjects were recruited based on telogen effluvium diagnosis. Subjects with uncontrolled hypertension, that were pregnant or breastfeeding, had been diagnosed with pattern hair loss or with other hair loss in conjunction with female pattern hair loss were excluded from the study.
Hair Shedding: To measure hair shedding, a 4-day protocol was designed. On the first day patients were instructed to wash their hair and use styling products and procedures as they normally would. On the second day, patients were instructed not to wash their hair and to apply 0.5 mL of a placebo solution, containing a vehicle only, on the frontal area of the scalp in an 8×10 cm2 target area. Patients were instructed to wait 45 minutes, after which, they brushed their hair 20 times from the front of the scalp to the bottom of head using a new brush. After the procedure, the brushes were sealed in a plastic bag. On day three, patients were instructed to wash their hair and use styling products and procedures as they normally would. […] After each clinical procedure, the investigator counted the hairs collected on each brush. A new brush was used for each procedure.

On to `CNC[C@H](O)c1cccc(O)c1` [phenylephrine], for which the “Average reduction in hair loss” value is reported as “approximately 42%”.
